US11154563B2, “Immunoproteasome inhibitors” (Principia Biopharma Inc., priority 2017, dated 2021)

What was measured:
[1] = target: constitutive proteasome β5c unit (Homo sapiens, UniProt P20618+P28074); test: Caliper-based proteasome enzymatic activity assay, β5c; type: biochemical; conditions: human recombinant constitutive proteasome 0.3 nM, FAM-peptide substrate 1 μM, 3 h at rt; read-out: β5c subunit IC50
Procedure, shortened: (§1)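 Recombinant human immunoproteasome or constitutive proteasome (0.3 nM) with 1 μM FAM-peptide in 20 mM Hepes pH 7.4, 0.015% SDS, 0.01% BSA; LMP7/β5c ran 3 h at rt and were stopped with 5 uM carfilzomib, LMP2 ran 2 h and was stopped with 6.7 uM ixazomib. Cleaved product quantified by microfluidic separation; IC50 from percent inhibition.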

[2] = target: immunoproteasome LMP7/B5i subunit (Homo sapiens, UniProt P20618+P28062); test: Caliper-based proteasome enzymatic activity assay, LMP7; type: biochemical; conditions: human recombinant immunoproteasome 0.3 nM, FAM-peptide substrate 1 μM, 3 h at rt
Procedure, shortened: as §1

[3] = target: immunoproteasome LPM2/β1i subunit (Homo sapiens, UniProt P28065+P40306); test: Caliper-based proteasome enzymatic activity assay, LMP2; type: biochemical; conditions: human recombinant immunoproteasome 0.3 nM, FAM-peptide substrate 1 μM, 2 h at rt
Experimental: A Caliper-based proteasome assay (Caliper Life Sciences, Hopkinton, Mass.) was used to measure inhibition of the immunoproteasome LMP7/B5i subunit, the immunoproteasome LPM2/β1i subunit, and the constitutive proteasome β5c unit for a compound of Formula (I). For LMP7 and β5c, serial dilutions of test compounds were incubated with either human recombinant immunoprotcasome or constitutive proteasome (0.3 nM enzyme) and a carboxyfluorescein (FAM)-labeled peptide substrate FAM-TYETFKSIMKKSPF-NH2 (1 μM) at it for 3 h. The reaction was then terminated with a buffer containing the known proteasome inhibitor carfilzomib at a concentration of 5 uM. For LMP2, serial dilutions of test compounds were incubated with human recombinant immunoproteasome proteasome (0.3 nM enzyme) and a carboxyfluorescein (FAM)-labeled peptide substrate FAM-[…]-NH2 (1 μM) at rt for 2 h. The reaction was then terminated with a buffer containing the known proteasome inhibitor ixazomib at a concentration of 6.7 uM. The reaction buffer was 20 mM Hepes pH 7.4, 0.01% bovine serum albumin, 0.015% SDS, 0.5 mM EDTA, 1%0/DMSO. The peptide cleavage reaction product was quantified on a Caliper LabChip 3000. Percent inhibition was calculated for each compound dilution and the concentration that produced 50% inhibition was calculated. This value is presented as the IC50.

PBMC/LMP7 = target: T1, PBMC/LMP7 (Homo sapiens, UniProt P28062); test: Inhibition of proteasome activity in cells (Proteasome-Glo), PBMC; type: cell-based; conditions: primary human PBMC, 2 h incubation, Suc-LLVY-aminoluciferin substrate
T1 construct: endogenous in cells; host or cells: primary human PBMC
Experimental: The cell-based effects of a compound described herein on the immunoproteasome are determined by measuring inhibition of proteasome activity in cells using the Proteasome-Glo™ Cell-Based Reagent (Promega, Madison Wis.). The Proteasome-Glo™ assay contains a specific luminogenic proteasome substrate in a buffer optimized for cell permeabilization, proteasome activity, and luciferase activity. For the chymotrypsin-like activity (LMP7 and […]), the peptide substrate is Suc-LLVY-aminoluciferin (Succinyl-leucine-leucine-valine-tyrosine-aminoluciferin). Cleavage of the substrate by proteasome results in luminescent signal which is proportional to the proteasome activity. The cell line THP-1 (a monocytic leukemia cell line enriched in immunoproteasome), the cell line HT-29 (a colorectal adenocarcinoma cell line enriched in constitutive proteasome), and primary human peripheral blood mononuclear cells (PBMC) are used to assess proteasome activity. Cells are seeded in a 96-well plate at 10,000 cells per well in RPMI 1640 high glucose medium with 10% fetal bovine serum (FBS). Compound dilutions are added to cells starting at a concentration of 5 uM and decreasing in tripling dilutions. The final DMSO concentration is 1%. The concentration range is adjusted as needed for compounds of different potencies. The cells treated with compounds are incubated for 2 h at 37° C. in 5% CO2. At the end of the 2 h incubation period, cells are transferred to white 384 well assay plates. 20 uL of Proteasome-Glo™ Reagent is added to each well and incubated for 10 min at rt. The plate is read in the Analyst HT instrument (Molecular Devices, Sunnyvale, Calif.) using luminescence mode. The percent inhibition of activity is plotted as a function of log compound concentration. The IC50 is then calculated for each compound using Prism software from GraphPad Software Inc. (San Diego, Calif.).

In the case of `CC(C)C=C(C#N)C(=O)N1CCCC1CCC(=O)N[C@@H](Cc1ccccc1)B(O)O` (single isomer, unassigned) [Example 3], the IC50 [1] is reported as > 5000 nM, the IC50 [2] is reported as 60 nM and the IC50 [3] is reported as 3430 nM. It also gave an IC50 (PBMC/LMP7) of 130 nM.
In the case of `CC(C)C=C(C#N)C(=O)N1CCCC1CCC(=O)N[C@@H](Cc1ccccc1)B(O)O` (single isomer, unassigned) [Example 4], the IC50 [1] is reported as 637 nM, the IC50 [2] is reported as 4 nM and the IC50 [3] is reported as 2440 nM. It also gave an IC50 (PBMC/LMP7) of 39 nM.
With `CC(C)C=C(C#N)C(=O)N1CCCCC1CCC(=O)N[C@@H](Cc1ccccc1)B(O)O` (single isomer, unassigned) [Example 5] the IC50 [1] was 1040 nM, the IC50 [2] was 7.6 nM and the IC50 [3] was 448 nM. The IC50 (PBMC/LMP7) was 23 nM.
`CC(C)C=C(C#N)C(=O)N1CCCCC1CCC(=O)N[C@@H](Cc1ccccc1)B(O)O` (single isomer, unassigned) [Example 6] was tested, and the IC50 [1] was > 5000 nM, the IC50 [2] was 57 nM and the IC50 [3] was 964 nM. The IC50 (PBMC/LMP7) was 140 nM.
With `CC(C)C=C(C#N)C(=O)N1CCC[C@@H]1COCCC(=O)N[C@@H](Cc1ccccc1)B(O)O` [Example 1, ((R)-1-(3-(((R)-1-(2-cyano-4-methylpent-2-enoyl)pyrrolidin-2-yl)methoxy)propanamido)-2-phenylethyl)boronic acid] the IC50 [1] was 1460 nM, the IC50 [2] was 79 nM and the IC50 (PBMC/LMP7) was 190 nM.
With `CC(C)C=C(C#N)C(=O)N1CCCC[C@@H]1COC(=O)N[C@@H](Cc1ccccc1)B(O)O` [Example 2, ((R)-1-(((((R)-1-(2-cyano-4-methylpent-2-enoyl)piperidin-2-yl)methoxy)carbonyl)amino)-2-phenylethyl)boronic acid] the IC50 [1] was > 5000 nM, the IC50 [2] was 55 nM and the IC50 [3] was > 5000 nM. It also gave an IC50 (PBMC/LMP7) of 420 nM.
For `CC(C)C=C(C#N)C(=O)N1CCC[C@@H]1COC(=O)N[C@@H](Cc1ccccc1)B(O)O` [Example 7, ((R)-1-(((((R)-1-(2-cyano-4-methylpent-2-enoyl)pyrrolidin-2-yl)methoxy)carbonyl)amino)-2-phenylethyl)boronic acid], the IC50 [1] was > 5000 nM, the IC50 [2] was 2.6 nM and the IC50 [3] was > 5000 nM. The IC50 (PBMC/LMP7) was 9.4 nM.
For `CC(C)(C)C=C(C#N)C(=O)N1CCC[C@@H]1COC(=O)N[C@@H](Cc1ccccc1)B(O)O` [Example 10, ((R)-1-(((((R)-1-(2-cyano-4,4-dimethylpent-2-enoyl)pyrrolidin-2-yl)methoxy)carbonyl)amino)-2-phenylethyl)boronic acid], the IC50 [1] was 3410 nM, the IC50 [2] was 1.8 nM and the IC50 [3] was > 5000 nM. For the same compound, the IC50 (PBMC/LMP7) was 7.1 nM.
In the case of `CC(C)(C)C=C(C#N)C(=O)N1CCCC[C@@H]1COC(=O)N[C@@H](Cc1ccccc1)B(O)O` [Example 15, ((R)-1-(((((R)-1-(2-cyano-4,4-dimethylpent-2-enoyl)piperidin-2-yl)methoxy)carbonyl)amino)-2-phenylethyl)boronic acid], the IC50 [1] is reported as 4190 nM, the IC50 [2] is reported as 5.5 nM and the IC50 [3] is reported as > 5000 nM. For the same compound, the IC50 (PBMC/LMP7) was 3.3 nM.
In the case of `CC1(C=C(C#N)C(=O)N2CCCC[C@@H]2COC(=O)N[C@@H](Cc2coc3ccccc23)B(O)O)CCOCC1` [Example 59, ((R)-2-(benzofuran-3-yl)-1-(((((R)-1-(2-cyano-3-(4-methyltetrahydro-2H-pyran-4-yl)acryloyl)piperidin-2-yl)methoxy)carbonyl)amino)ethyl)boronic acid], the IC50 [1] is reported as 372 nM, the IC50 [2] is reported as 2.8 nM and the IC50 [3] is reported as > 5000 nM.
With `CC(C)(C=C(C#N)C(=O)N1C[C@@H]2C[C@@H]2[C@@H]1COC(=O)N[C@@H](Cc1ccccc1)B(O)O)N1CCOCC1` [Example 67, ((R)-1-(((((1S,2R,5R)-3-(2-cyano-4-methyl-4-morpholinopent-2-enoyl)-3-azabicyclo[3.1.0]hexan-2-yl)methoxy)carbonyl)amino)-2-phenylethyl)boronic acid] the IC50 [1] was 2310 nM, the IC50 [2] was 1 nM and the IC50 [3] was > 5000 nM.
In the case of `CC(C)(C=C(C#N)C(=O)N1C[C@@H]2C[C@@H]2[C@@H]1COC(=O)N[C@@H](Cc1ccccc1)B(O)O)N1CCC(F)(F)C1` [Example 74, ((R)-1-(((((1S,2R,5R)-3-(2-cyano-4-(3,3-difluoropyrrolidin-1-yl)-4-methylpent-2-enoyl)-3-azabicyclo[3.1.0]hexan-2-yl)methoxy)carbonyl)amino)-2-phenylethyl)boronic acid], the IC50 [1] is reported as 925 nM, the IC50 [2] is reported as 1.2 nM and the IC50 [3] is reported as 3360 nM.
In the case of `CC(C)(C=C(C#N)C(=O)N1CCCC[C@@H]1COC(=O)N[C@@H](Cc1ccc(F)cc1)B(O)O)N1CCC(F)(F)C1` [Example 82, ((R)-1-(((((R)-1-(2-cyano-4-(3,3-difluoropyrrolidin-1-yl)-4-methylpent-2-enoyl)piperidin-2-yl)methoxy)carbonyl)amino)-2-(4-fluorophenyl)ethyl)boronic acid], the IC50 [1] is reported as 2150 nM, the IC50 [2] is reported as 1.4 nM and the IC50 [3] is reported as > 5000 nM.
`CC(C)(C=C(C#N)C(=O)N1CCCC[C@@H]1COC(=O)N[C@@H](Cc1ccc(C(F)(F)F)cc1)B(O)O)N1CCC(F)(F)C1` [Example 83, ((R)-1-(((((R)-1-(2-cyano-4-(3,3-difluoropyrrolidin-1-yl)-4-methylpent-2-enoyl)piperidin-2-yl)methoxy)carbonyl)amino)-2-(4-(trifluoromethyl)phenyl)ethyl)boronic acid] was tested, and the IC50 [1] was 1220 nM, the IC50 [2] was 4.4 nM and the IC50 [3] was > 5000 nM.
In the case of `CC(C)(C=C(C#N)C(=O)N1CCC[C@]1(C)COC(=O)N[C@@H](Cc1ccccc1)B(O)O)N1CCC(F)(F)C1` [Example 85, ((R)-1-(((((R)-1-(2-cyano-4-(3,3-difluoropyrrolidin-1-yl)-4-methylpent-2-enoyl)-2-methylpyrrolidin-2-yl)methoxy)carbonyl)amino)-2-phenylethyl)boronic acid], the IC50 [1] is reported as 4890 nM, the IC50 [2] is reported as 2 nM and the IC50 [3] is reported as > 5000 nM.
With `Cc1ccc(C[C@H](NC(=O)OC[C@H]2COCCN2C(=O)C(C#N)=CC(C)(C)N2CCC(F)(F)C2)B(O)O)cc1` [Example 86, ((R)-1-(((((R)-4-(2-cyano-4-(3,3-difluorpyrrolidin-1-yl)-4-methylpent-2-enoyl)morpholin-3-yl)methoxy)carbonyl)amino)-2-(p-tolyl)ethyl)boronic acid] the IC50 [1] was 566 nM, the IC50 [2] was 2.7 nM and the IC50 [3] was > 5000 nM.
With `CC(C)(C)/C=C(\C#N)C(=O)N1C[C@H](F)C[C@@H]1COC(=O)N[C@@H](Cc1ccccc1)B(O)O` [Example 90, ((R)-1-(((((2R,4R)-1-((E)-2-cyano-4,4-dimethylpent-2-enoyl)-4-fluoropyrrolidin-2-yl)methoxy)carbonyl)amino)-2-phenylethyl)boronic acid] the IC50 [1] was 1960 nM, the IC50 [2] was 1 nM and the IC50 [3] was 4500 nM.
`CC(C)(C)/C=C(\C#N)C(=O)N1C[C@@H](F)C[C@@H]1COC(=O)N[C@@H](Cc1ccccc1)B(O)O` [Example 102, ((R)-1-(((((2R,4S)-1-((E)-2-cyano-4,4-dimethylpent-2-enoyl)-4-fluoropyrrolidin-2-yl)methoxy)carbonyl)amino)-2-phenylethyl)boronic acid] gave an IC50 [1] of 1130 nM, an IC50 [2] of 0.7 nM and an IC50 [3] of 4490 nM.
`CC(C)C[C@H](NC(=O)OC[C@H]1CCCCN1C(=O)C(C#N)=CC(C)(C)N1CCC(F)(F)C1)B(O)O` [Example 105, ((R)-1-(((((R)-1-(2-cyano-4-(3,3-difluoropyrrolidin-1-yl)-4-methylpent-2-enoyl)piperidin-2-yl)methoxy)carbonyl)amino)-3-methylbutyl)boronic acid] gave an IC50 [1] of 1450 nM, an IC50 [2] of 2.7 nM and an IC50 [3] of 2160 nM.
